Values quoted from earlier work in US20180338982A1, “Cooperative Medication Combination Systems” (priority 2017, published 2018).

Conditions: in vivo

- Half-life: 2 h
Structure (SMILES): CCC(C)(C)C(=O)O[C@H]1C[C@@H](C)C=C2C=C[C@H](C)[C@H](CC[C@@H]3C[C@@H](O)CC(=O)O3)[C@H]21 [Simvastatin]
